Experiments:
[1] = target: MEK1 kinase (Homo sapiens (Human), UniProt Q02750); experiment: MEK1 kinase enzymatic activity assay (Kinase Glo plus luminescence); type: biochemical; settings: 60 minutes at 22 degree
Protocol: The Kinase Glo plus assay kit was purchased from Promega. The substrate, APT, DTT, and dimethylsulfoxide were purchased from Sigma-Aldrich.
The MAP2K1 (MEK1) kinase, Europium labeled Antibody, Tracer 236 and binding buffer A were purchased from Invitrogen.
Determination of Enzymatic Activity:
Compounds were diluted from DMSO stocks into 1× buffer (20 mM MOPS, PH 7.4, 5 mM MgCl2, 0.5 mM MnCl2, 100 uM Sodium Orthovanadate, 0.01% Triton X-100, 1 mM DTT). A typical reaction assay contained 0.01 nanomoles MEK1 kinase, 0.01 nanomoles ATP, 10 nanograms substrate. The screening assay essentially comprised four additions. 2 ul of diluted compounds were dispensed to 384 well white assay plates. 6 ul of kinase-substrate cocktail was then added to each well. 2 ul 5×ATP was subsequently added to each well to start the reaction. A top seal was applied and the plate was incubated at 22 degree avoiding light for 60 minutes. Finally, 10 ul of the Kinase Glo plus reagent was added to each well to stop the reaction. Incubated at room temperature and avoid light for ten minutes. The top seal was removed and the plate was counted by the EnVision 2104 multi labeled plate reader (PerkinElmer) with a standard luminescent program.

[2] = tested on: phosphorylated ERK in Human A375 melanoma cancer cells; experiment: AlphaScreen assay for phosphorylated ERK in A375 cells; settings: A-375, 1 h, compound treatment 60 minutes at 37 degree, phospho-ERK, read-out: IC50 (nM) Cell based
Protocol: The SureFire Phospho-ERK1/2 Assay kit and the AlphaScreen General IgG (Protein A) Detection kit were both purchased from PerkinElmer.
Generation of Cell Based IC50 Data • Effects of compounds in the cell were determined by the AlphaScreen assay for phosphorylated ERK. Human A375 melanoma cancer cells were plated in a 96 wells plate at 80,000 cells per well and grown in a 37 degree humidified CO2 incubator. The following day, cells were treated with a range of compound concentrations for 60 minutes at 37 degree. The cells were then lysed and 4 ul of each lysate were transferred into the 384 well white reaction plate. A cocktail of AlphaScreen beads and buffer was freshly prepared and this mixture was dispensed into each well in a room with low light. A top seal was applied and the plate was incubated at 25 degree avoiding light for two hours. The top seal was removed when the plate was counted by the EnVision multi labeled plate reader (PerkinElmer) with an optimized AlphaScreen program. […] Biological Data for Select Compounds

Sequence of MEK1 kinase (Q02750 whole entry): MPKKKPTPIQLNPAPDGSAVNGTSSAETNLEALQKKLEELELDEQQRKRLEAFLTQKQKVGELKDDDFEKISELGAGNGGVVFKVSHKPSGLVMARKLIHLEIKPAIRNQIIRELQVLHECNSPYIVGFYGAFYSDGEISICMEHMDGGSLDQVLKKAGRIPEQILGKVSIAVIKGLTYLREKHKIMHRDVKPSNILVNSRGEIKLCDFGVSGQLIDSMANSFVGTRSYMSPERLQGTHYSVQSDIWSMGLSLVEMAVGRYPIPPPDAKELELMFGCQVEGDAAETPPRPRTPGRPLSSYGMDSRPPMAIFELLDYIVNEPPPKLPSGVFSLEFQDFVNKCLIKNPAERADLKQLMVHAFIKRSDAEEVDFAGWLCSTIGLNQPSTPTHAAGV

| Structure (SMILES) | IC50 [1] [nM] | IC50 [2] [nM] |
| --- | --- | --- |
| Cc1nc2c(=O)n(C)c(Nc3ccc(I)cc3F)c(C(=O)NOCCO)c2o1 | < 1000 | < 100 |
| Cc1nc2c(C(=O)NOCCO)c(Nc3ccc(I)cc3F)n(C)c(=O)c2s1 | < 500 | < 100 |
| Cn1c(Nc2ccc(I)cc2Cl)c(C(=O)NOCCO)c2occc2c1=O | < 100 | < 100 |
| Cn1c(Nc2ccc(I)cc2F)c(C(=O)NOCCO)c2oc(CN3CCOCC3)cc2c1=O | < 500 | < 100 |
| CSc1nc2c(C(=O)NOCCO)c(Nc3ccc(I)cc3Cl)n(C)c(=O)c2s1 | < 100 | < 100 |
| CSc1ccc(Nc2c(C(=O)NOCCO)c3occc3c(=O)n2C)c(Cl)c1 | < 1000 | < 100 |
| Cc1noc2c(C(=O)NOCCO)c(Nc3ccc(I)cc3F)n(C)c(=O)c12 | < 10000 | < 100 |
| Cn1c(Nc2ccc(Cl)cc2Cl)c(C(=O)NOCCO)c2occc2c1=O | < 10000 | < 1000 |
| Cc1cc2c(=O)n(C)c(Nc3ccc(I)cc3F)c(C(=O)NOC[C@H](O)CO)c2o1 | < 500 | < 100 |
| Cn1c(Nc2ccc(I)cc2F)c(C(=O)NOCCO)c2scnc2c1=O | < 10000 | < 10000 |
| CC[C@H](O)CONC(=O)c1c(Nc2ccc(I)cc2F)n(C)c(=O)c2ccoc12 | < 100 | < 100 |
| CNc1nc2c(C(=O)NOCCO)c(Nc3ccc(I)cc3F)n(C)c(=O)c2s1 | < 500 | < 100 |
| Cc1coc2c(C(=O)NOCCO)c(Nc3ccc(I)cc3F)n(C)c(=O)c12 | < 500 | < 100 |
| Cn1c(Nc2ccc(I)cc2F)c(C(=O)N2CC(O)(C3CCCCN3)C2)c2occc2c1=O (stereo not shown) | < 1000 | < 100 |
| CSc1nc2c(C(=O)NOCCO)c(Nc3ccc(I)cc3F)n(C)c(=O)c2s1 | < 500 | < 100 |
| Cc1cc2c(=O)n(C)c(Nc3ccc(I)cc3F)c(C(=O)NOCCO)c2o1 | < 500 | < 100 |
| Cn1c(Nc2ccc(I)cc2Cl)c(C(=O)NCCCO)c2occc2c1=O | < 10000 | < 100 |
| Cn1c(Nc2ccc(I)cc2F)c(C(=O)NOCCO)c2sccc2c1=O | < 500 | < 100 |
| CN(C)Cc1cc2c(=O)n(C)c(Nc3ccc(I)cc3F)c(C(=O)NOCCO)c2o1 | < 500 | < 100 |
| CSc1ccc(Nc2c(C(=O)NOCCO)c3occc3c(=O)n2C)c(F)c1 | < 500 | < 100 |
| Cn1c(Nc2ccc(I)cc2F)c(C(=O)NOCCO)c2ncsc2c1=O | < 1000 | < 100 |
| Cn1c(Nc2ccc(I)cc2F)c(C(=O)NOCCO)c2nc(N)sc2c1=O | < 500 | < 100 |
| Cc1coc2c(C(=O)NOCCO)c(Nc3ccc(I)cc3Cl)n(C)c(=O)c12 | < 500 | < 100 |
| Cn1c(Nc2ccc(I)cc2F)c(C(=O)NOC[C@H](O)CO)c2occc2c1=O | < 100 | < 100 |
| Cn1c(Nc2ccc(Br)cc2F)c(C(=O)NOCCO)c2occc2c1=O | < 10000 | < 100 |
| Cn1c(Nc2ccc(Br)cc2Cl)c(C(=O)NOCCO)c2occc2c1=O | < 1000 | < 100 |

Results, then the compound that gave them:

| IC50 [1] [nM] | IC50 [2] [nM] | Structure (SMILES) |
| --- | --- | --- |
| < 1000 | < 100 | Cn1c(Nc2ccc(I)cc2F)c(C(=O)NCC(O)CO)c2occc2c1=O (stereo not shown) |
| < 10000 | < 100 | Cn1c(Nc2ccc(I)cc2F)c(C(=O)NCCCO)c2occc2c1=O |
| < 500 | < 100 | CCONC(=O)c1c(Nc2ccc(I)cc2F)n(C)c(=O)c2ccoc12 |
| < 500 | < 100 | COCCONC(=O)c1c(Nc2ccc(I)cc2F)n(C)c(=O)c2ccoc12 |
| < 10000 | < 500 | Cn1c(Nc2ccc(I)cc2F)c(C(=O)NC(=O)CO)c2occc2c1=O |
| < 100 | < 100 | C[C@H](O)CONC(=O)c1c(Nc2ccc(I)cc2F)n(C)c(=O)c2ccoc12 |
| < 100 | < 100 | Cn1c(Nc2ccc(I)cc2F)c(C(=O)NOCCO)c2occc2c1=O |
| < 100 | < 100 | C[C@@H](CO)ONC(=O)c1c(Nc2ccc(I)cc2F)n(C)c(=O)c2ccoc12 |
| < 100 | < 100 | Cn1c(Nc2ccc(I)cc2F)c(C(=O)NOCC2CC2)c2occc2c1=O |
| < 500 | < 100 | CONC(=O)c1c(Nc2ccc(I)cc2F)n(C)c(=O)c2ccoc12 |
| < 1000 | < 100 | Cn1c(Nc2ccc(I)cc2F)c(C(N)=O)c2occc2c1=O |
| < 100 | < 100 | Cn1c(Nc2ccc(I)cc2F)c(C(=O)NOC(C)(C)CO)c2occc2c1=O |

Reference: patent US9540396B2, “6-arylamino pyridone carboxamide as MEK inhibitors” (Centaurus Biopharma Co., Ltd., priority 2010, dated 2017)
